What was measured:
[1] = molecular target: Acetylcholinesterase (Electrophorus electricus) (UniProt O42275); test: Inhibition of electric eel AChE assessed as purple zones of inhibition after 20 mins by TLC bioautography
[2] = molecular target: Acetylcholinesterase (Electrophorus electricus) (UniProt O42275); test: Inhibition of electric eel AChE at 350 […] by microplate assay

Sequence of Acetylcholinesterase (Electrophorus electricus) (O42275 24-633 limits assumed): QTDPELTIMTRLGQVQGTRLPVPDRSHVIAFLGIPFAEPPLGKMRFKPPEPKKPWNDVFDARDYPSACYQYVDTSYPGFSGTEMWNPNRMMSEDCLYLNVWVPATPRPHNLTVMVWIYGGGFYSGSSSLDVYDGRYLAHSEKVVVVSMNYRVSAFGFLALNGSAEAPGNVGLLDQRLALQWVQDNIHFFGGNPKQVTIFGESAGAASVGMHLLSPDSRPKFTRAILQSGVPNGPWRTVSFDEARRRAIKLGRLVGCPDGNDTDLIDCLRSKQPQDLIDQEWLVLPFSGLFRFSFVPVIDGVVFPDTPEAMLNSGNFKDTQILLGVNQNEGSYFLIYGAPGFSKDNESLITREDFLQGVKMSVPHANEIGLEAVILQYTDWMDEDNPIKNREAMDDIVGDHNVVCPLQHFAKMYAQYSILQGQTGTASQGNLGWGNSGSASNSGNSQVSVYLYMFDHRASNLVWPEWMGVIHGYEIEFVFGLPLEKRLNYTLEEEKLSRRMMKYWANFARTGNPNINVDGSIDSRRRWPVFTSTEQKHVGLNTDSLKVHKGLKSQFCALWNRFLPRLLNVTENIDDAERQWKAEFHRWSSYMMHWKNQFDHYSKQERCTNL

Compound | INH [1] [µg] | inhibition [2] [%]
C[C@@H]1O[C@@H](OC[C@H]2O[C@@H](Oc3c(-c4ccc(O)c(O)c4)oc4cc(O)cc(O)c4c3=O)[C@H](O)[C@@H](O)[C@@H]2O)[C@H](O)[C@H](O)[C@H]1O | > 100 | 
Cc1nc(CCCCCCC(=O)CCCCCO)ccc1O | 0.18 | 30
CNC(=O)Oc1ccc2c(c1)[C@]1(C)CCN(C)[C@@H]1N2C | 0.05 | 87
CCCCCC(=O)CCCCCCc1ccc(O)c(C)n1 | 0.75 | 13

Source: ChEMBL document CHEMBL1154827, “Acetylcholinesterase inhibitory pyridine alkaloids of the leaves of Senna multijuga” (J Nat Prod, 2010)
